≈ marks a conversion by molar mass, not a printed value. Calls of active or inactive are those of the source. The rule behind the calls is not given here.
Experiments:
CDK9/cyclin T1 = CDK9/cyclin T1 (Homo sapiens, UniProt P50750); assay: Inhibition of CDK9/Cyclin T1 (unknown origin) preincubated for 10 mins followed by ATP and CTD3 addition and measured after 30 mins by mobility shift assay; format: protein-complex assay
MV4-11 [1] = assay: Antiproliferative activity against human MV4-11 cells assessed as inhibition of cell growth incubated for 72 hrs by CTG- luminescence assay; format: functional, cell-based; conditions: MV4-11, 72 h
MV4-11 [2] = assay: Downregulation of Mcl-1 expression in human MV4-11 cells at 1 uM incubated for 24 hrs by Western blot analysis; format: functional, cell-based
MV4-11 [3] = assay: Downregulation of c-Myc expression in human MV4-11 cells at 1 uM incubated for 24 hrs by Western blot analysis; format: functional, cell-based
MV4-11 [4] = assay: Inhibition of RNA polymerase 2 phosphorylation at Ser2 residue in human MV4-11 cells at 1 uM incubated for 24 hrs by Western blot analysis; format: cell-based
[5] = Kinetic solubility of the compound in pH 7.4 PBS buffer incubated for 24 hrs under shaking condition by HPLC analysis; format: physicochemical; conditions: read-out: Kinetic_solubility
[6] = Initial plasma concentration in Sprague-Dawley rat at 1 mg/kg, iv bolus injection measured upto 24 hrs by LC-MS/MS analysis; format: ADME, organism-based
[7] = Elimination rate constant in Sprague-Dawley rat at 1 mg/kg, iv bolus injection measured upto 24 hrs by LC-MS/MS analysis; format: ADME, organism-based; conditions: in vivo
[8] = Half life in Sprague-Dawley rat at 1 mg/kg, iv bolus injection measured upto 24 hrs by LC-MS/MS analysis; format: ADME, organism-based; conditions: in vivo
[9] = MRT(0 to t) in Sprague-Dawley rat at 1 mg/kg, iv bolus injection measured upto 24 hrs by LC-MS/MS analysis; format: ADME, organism-based; conditions: in vivo
[10] = MRT(0 to infinity) in Sprague-Dawley rat at 1 mg/kg, iv bolus injection measured upto 24 hrs by LC-MS/MS analysis; format: ADME, organism-based; conditions: in vivo
[11] = AUC(0 to t) in Sprague-Dawley rat at 1 mg/kg, iv bolus injection measured upto 24 hrs by LC-MS/MS analysis; format: ADME, organism-based; parameters: dose 1 mg/kg, time < 24 hrs, route iv; conditions: in vivo
[12] = AUC(0 to infinity) in Sprague-Dawley rat at 1 mg/kg, iv bolus injection measured upto 24 hrs by LC-MS/MS analysis; format: ADME, organism-based; parameters: time < 24 hrs, dose 1 mg/kg, route iv; conditions: in vivo
[13] = Clearance in Sprague-Dawley rat at 1 mg/kg, iv bolus injection measured upto 24 hrs by LC-MS/MS analysis; format: ADME, organism-based; conditions: in vivo
[14] = Volume of distribution at steady state in Sprague-Dawley rat at 1 mg/kg, iv bolus injection measured upto 24 hrs by LC-MS/MS analysis; format: ADME, organism-based; conditions: in vivo, read-out: Vdss
MV4-11 [15] = assay: Antiproliferative activity against human MV4-11 cells assessed as inhibition of cell growth at 0.37 uM incubated for 72 hrs by CTG- luminescence assay relative to control; format: functional

Sequence of CDK9/cyclin T1 (O60563 whole entry): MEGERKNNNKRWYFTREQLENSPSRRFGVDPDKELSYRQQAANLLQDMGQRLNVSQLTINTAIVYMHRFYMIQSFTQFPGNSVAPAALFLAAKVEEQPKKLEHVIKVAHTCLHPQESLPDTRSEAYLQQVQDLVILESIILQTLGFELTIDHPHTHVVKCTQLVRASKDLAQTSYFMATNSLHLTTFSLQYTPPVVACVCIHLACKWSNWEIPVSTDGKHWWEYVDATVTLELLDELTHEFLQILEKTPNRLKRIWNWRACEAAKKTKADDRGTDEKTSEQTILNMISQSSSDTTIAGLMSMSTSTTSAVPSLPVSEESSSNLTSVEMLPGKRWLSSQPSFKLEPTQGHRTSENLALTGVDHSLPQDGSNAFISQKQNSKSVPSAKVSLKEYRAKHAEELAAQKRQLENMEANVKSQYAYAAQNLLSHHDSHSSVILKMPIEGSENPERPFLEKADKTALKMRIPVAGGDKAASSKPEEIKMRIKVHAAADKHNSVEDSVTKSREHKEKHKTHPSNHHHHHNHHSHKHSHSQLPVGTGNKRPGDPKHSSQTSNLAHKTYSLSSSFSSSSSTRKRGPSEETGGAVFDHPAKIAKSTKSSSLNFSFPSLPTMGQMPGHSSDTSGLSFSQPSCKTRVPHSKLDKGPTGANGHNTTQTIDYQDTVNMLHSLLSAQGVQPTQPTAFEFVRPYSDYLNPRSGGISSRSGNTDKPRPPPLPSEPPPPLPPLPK
Sequence of CDK9/cyclin T1 (P50750 whole entry): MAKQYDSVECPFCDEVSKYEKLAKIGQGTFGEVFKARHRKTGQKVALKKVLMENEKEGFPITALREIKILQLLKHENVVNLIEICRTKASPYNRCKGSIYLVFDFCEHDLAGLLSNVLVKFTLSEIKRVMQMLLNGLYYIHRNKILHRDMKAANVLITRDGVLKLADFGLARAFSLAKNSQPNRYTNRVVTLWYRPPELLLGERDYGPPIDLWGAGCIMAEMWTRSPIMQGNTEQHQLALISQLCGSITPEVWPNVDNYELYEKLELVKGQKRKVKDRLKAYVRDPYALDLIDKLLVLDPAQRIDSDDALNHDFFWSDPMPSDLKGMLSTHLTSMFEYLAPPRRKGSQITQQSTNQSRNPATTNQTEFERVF

| Structure (SMILES) | IC50 (CDK9/cyclin T1) | IC50 (MV4-11 [1]) | other results |
| --- | --- | --- | --- |
| CCN1C(=O)COc2c(CN(C)CCN(C)C)cc(Nc3ncc(F)c(-c4ccc(F)cc4OC)n3)cc21 | 2.2 nM | 143 nM |  |
| CCN1C(=O)COc2c(CN3CCNCC3)cc(Nc3ncc(F)c(-c4ccc(F)cc4OC)n3)cc21 | 4.2 nM | 128 nM |  |
| CCN1C(=O)COc2c(CN(C)CCNC)cc(Nc3ncc(F)c(-c4ccc(F)cc4OC)n3)cc21 | 2.5 nM | 89 nM |  |
| CCN1C(=O)COc2c(CN3CCOC[C@H]3C)cc(Nc3ncc(F)c(-c4ccc(F)cc4OC)n3)cc21 | 1.9 nM | 364 nM |  |
| CN1CC[C@H](c2c(O)cc(O)c3c(=O)cc(-c4ccccc4Cl)oc23)[C@H](O)C1 |  |  | Activity (MV4-11 [2]): Active; Activity (MV4-11 [3]): Active; inhibition (MV4-11 [4]): Active |
| CCN1CCN(Cc2cc(Nc3ncc(F)c(-c4ccc(F)cc4OC)n3)cc3c2OCC(=O)N3CC)CC1 | 4.4 nM | 142 nM |  |
| CCN(CC)Cc1cc(Nc2ncc(F)c(-c3ccc(F)cc3OC)n2)cc2c1OCC(=O)N2CC | 2.6 nM | 26 nM | solubility kinetic at 24 h [5]: 3.9 µg/mL (≈ 7.84 µM); C0 at 24 h [6]: 155 ng/mL; k el at 24 h [7]: 0.0004 s⁻¹; half-life [8]: 29.8 min; MRT last at 24 h [9]: 36.7 min; MRT inf [10]: 41.3 min; AUC(0-t) at 24 h [11]: 107 ng·h/mL; AUC(0-inf) [12]: 111 ng·h/mL; clearance [13]: 168 mL/min/kg; Vd [14]: 6.45 L/kg |
| CCN1C(=O)COc2c(CN3CCCCC3)cc(Nc3ncc(F)c(-c4ccc(F)cc4OC)n3)cc21 | 2.7 nM | 50 nM |  |
| CCN1C(=O)COc2c(CN3CCN(C4COC4)CC3)cc(Nc3ncc(F)c(-c4ccc(F)cc4OC)n3)cc21 | 1.6 nM | 105 nM |  |
| CCN1C(=O)COc2c(CN3CCSCC3)cc(Nc3ncc(F)c(-c4ccc(F)cc4OC)n3)cc21 | 3.6 nM | 130 nM |  |
| CCN1C(=O)COc2c(CN3CCN(S(C)(=O)=O)CC3)cc(Nc3ncc(F)c(-c4ccc(F)cc4OC)n3)cc21 | 3 nM | 15 nM | solubility kinetic at 24 h [5]: 30.5 µg/mL (≈ 51.8 µM); C0 at 24 h [6]: 1060 ng/mL; k el at 24 h [7]: 0.000728 s⁻¹; half-life [8]: 15.9 min; MRT last at 24 h [9]: 14.4 min; MRT inf [10]: 14.8 min; AUC(0-t) at 24 h [11]: 245 ng·h/mL; AUC(0-inf) [12]: 246 ng·h/mL; clearance [13]: 68.1 mL/min/kg; Vd [14]: 1.01 L/kg |
| CCN1C(=O)COc2c(CN(C)CCOC)cc(Nc3ncc(F)c(-c4ccc(F)cc4OC)n3)cc21 | 2.3 nM | 65 nM |  |
| CCN1C(=O)COc2c(CN3CCC(N(C)C)C3)cc(Nc3ncc(F)c(-c4ccc(F)cc4OC)n3)cc21 (centres undefined) | 3.7 nM | 124 nM |  |
| CCN1C(=O)COc2c(CN3CCS(=O)(=O)CC3)cc(Nc3ncc(F)c(-c4ccc(F)cc4OC)n3)cc21 | 6 nM |  | inhibition at 0.37 µM (MV4-11 [15]): 15% |

Further lines, with some results ahead:

| IC50 (CDK9/cyclin T1) | IC50 (MV4-11 [1]) | Structure (SMILES) | other results |
| --- | --- | --- | --- |
| 3.4 nM | 149 nM | CCN1C(=O)COc2c(CN3CCN(C(C)C)CC3)cc(Nc3ncc(F)c(-c4ccc(F)cc4OC)n3)cc21 |  |
| 2.6 nM | 228 nM | CCN1C(=O)COc2c(CN3CCOCC3)cc(Nc3nccc(-c4ccc(F)cc4OC)n3)cc21 |  |
| 1.1 nM | 105 nM | CCN1C(=O)COc2c(CN3CCOCC3)cc(Nc3ncc(F)c(-c4ccc(F)cc4OC)n3)cc21 |  |
| > 100 nM |  | CCN1C(=O)COc2c(CN3CCOCC3)cc(Nc3nccc(-c4ccc(F)cc4OCc4ccccc4)n3)cc21 |  |
| 6.7 nM | 306 nM | CCN1C(=O)COc2c(CN3CCOCC3)cc(Nc3nccc(-c4cccnc4)n3)cc21 |  |
| 5.4 nM | 253 nM | CCN1C(=O)COc2c(CN3CCN(C)CC3)cc(Nc3ncc(F)c(-c4ccc(F)cc4OC)n3)cc21 |  |
| 42 nM |  | CCN1C(=O)COc2c(CN3CCOCC3)cc(Nc3cc(-c4ccc(F)cc4OC)c(F)cn3)cc21 |  |
| 80 nM |  | CCN1C(=O)COc2c(CN3CCOCC3)cc(Nc3cc(-c4ccc(F)cc4OC)c(Cl)cn3)cc21 |  |
| 23 nM |  | CCN1C(=O)COc2c(CN3CCOCC3)cc(Nc3nccc(-c4ccc5nc(C)n(C(C)C)c5c4)n3)cc21 |  |
| 21 nM |  | CCN1C(=O)COc2c(CN3CCOCC3)cc(Nc3nccc(-c4ccc5nn(C)c(C(C)C)c5c4)n3)cc21 |  |
| 39 nM |  | CCN1C(=O)COc2c(CN3CCOCC3)cc(Nc3nccc(-c4cn(C)c5ccccc45)n3)cc21 |  |
| 2.1 nM | 109 nM | CCN1C(=O)COc2c(CN3CCC(N4CCOCC4)CC3)cc(Nc3ncc(F)c(-c4ccc(F)cc4OC)n3)cc21 |  |
| 13 nM | 184 nM | CCN1C(=O)COc2c(CN3CCOCC3)cc(Nc3nccc(-c4ccc5nnn(C(C)C)c5c4)n3)cc21 |  |
